Test results from article PMC10220648 (Viruses, 2023).
Read-outs that look alike come from different tables or passages of the source.

Tests used:
[1] = system: HIV-1CH58TF; assay: microbe, parasite or virus in culture; type: cell-based; conditions: TZM-bl cells, average ± SD of at least three independent experiments, read-out: Viral neutralization IC50, HIV-1CH58TF
[2] = system: HIV-1JRFL-infected primary CD4+ T cells; assay: Anti-CoRBS 17b mAb binding to infected cells (flow cytometry); type: cell-based, human; conditions: 50 µM CD4mc; p24+ population; MFI
[3] = biological target: LMHT gp120CRF01_AE coree (Human immunodeficiency virus type 1, UniProt Q0ED31, DEL123-198/DEL305-311/DEL316-323/H375T/H60Y/I469M/K470R/N199G/N304G/N468D/P313S/Q104H/Q315S/T200G/V107I); assay: biochemical; type: binding, HIV-1
[4] = system: HIV-1AD8-infected primary CD4+ T cells; assay: FACS-based ADCC assay with HIV+ plasma; type: cell-based, human; conditions: 50µM compound; plasma 1/1000; effector/target 10:1
[5] = system: HIV-1AD8; assay: microbe, parasite or virus in culture; type: cell-based; conditions: TZM-bl cells, tier-2 virus, average ± SD of at least three independent experiments, read-out: Viral neutralization IC50, HIV-1AD8
[6] = system: VSV-G pseudovirus; assay: microbe, parasite or virus in culture; type: cell-based; conditions: TZM-bl, read-out: Viral neutralization IC50, VSV-G Pseudovirus
[7] = system: HIV-1AD8-infected primary CD4+ T cells; assay: HIV+ plasma cell-surface staining of infected cells; type: cell-based, human; conditions: 50µM compound; plasma 1:1000
[8] = system: HIV-1CH58TF-infected primary CD4+ T cells; assay: FACS-based ADCC assay with HIV+ plasma; type: cell-based, human; conditions: 50µM compound; plasma 1/1000; effector/target 10:1
[9] = system: HIV-1CH58TF-infected primary CD4+ T cells; assay: HIV+ plasma cell-surface staining of infected cells; type: cell-based, human; conditions: 50µM compound; plasma 1:1000
[10] = system: HIV-1JRFL; type: cell-based; conditions: TZM-bl cells; tier-2 virus; average ± SD of at least three independent experiments
[11] = system: HIV-1CH58TF-infected primary CD4+ T cells; assay: Anti-CoRBS 17b mAb binding to infected cells (flow cytometry); type: cell-based, human; conditions: 50 µM CD4mc; p24+ population; MFI
[12] = system: HIV-1JRFL-infected primary CD4+ T cells; assay: HIV+ plasma cell-surface staining of infected cells; type: cell-based, human; conditions: 50µM compound; plasma 1:1000
[13] = system: HIV-1JRFL-infected primary CD4+ T cells; assay: FACS-based ADCC assay with HIV+ plasma; type: cell-based, human; conditions: 50µM compound; plasma 1/1000; effector/target 10:1
[14] = Human immunodeficiency virus 1, TZM-bl

Structure (SMILES) | IC50 [1, 14] [µM] | 17b binding (exposure of the CoRBS), HIV-1JRFL-infected cells [2] | IC50 [3] [µM] | Susceptibility to ADCC mediated by HIV+ plasma, HIV-1AD8 [4] | IC50 [5, 14] [µM] | IC50 [6] [µM] | HIV+ plasma binding (recognition of infected cells), HIV-1AD8 [7] | IC50 [1] [µM] | Susceptibility to ADCC mediated by HIV+ plasma, HIV-1CH58TF [8] | IC50 [5] [µM] | HIV+ plasma binding (recognition of infected cells), HIV-1CH58TF [9] | Viral neutralization IC50, HIV-1JRFL [10] | 17b binding (exposure of the CoRBS), HIV-1CH58TF-infected cells [11] | HIV+ plasma binding (recognition of infected cells), HIV-1JRFL [12] | Susceptibility to ADCC mediated by HIV+ plasma, HIV-1JRFL [13]
NCC(=O)N1CCN(C(=O)N2C[C@H](CO)C[C@H](C(=O)Nc3ccc(Cl)c(F)c3)C2)CC1 (racemic) [DL-I-101] | 0.16 ± 0.03 | successfully exposed the CoRBS | 0.308 | translated into ADCC | 10.2 ± 3.1 | > 100 | did |  |  |  |  |  |  |  | 
O=C(O)CN1CCN(C(=O)N2C[C@H](CO)C[C@H](C(=O)Nc3ccc(Cl)c(F)c3)C2)CC1 (racemic) [DL-I-102] | 0.66 ± 0.25 | successfully exposed the CoRBS | 0.561 |  | 87 ± 39 | > 100 |  |  |  |  |  |  |  |  | 
CNCc1ccc2c(c1)C[C@H](CNC(=N)N)[C@H]2NC(=O)C(=O)Nc1ccc(Cl)c(F)c1 [BNM-III-170, reference compound] | 0.0336 |  |  |  | 3.75 | > 100 |  | 0.033 ± 0.01 | enhanced | 3.75 ± 1.3 | enhanced the recognition |  |  |  | 
NCCNC(=O)N1CCC[C@H](C(=O)Nc2ccc(Cl)c(F)c2)C1 [MCG-IV-210, reference compound] | 3.46 ± 1.06 | but not the tier-2 HIV-1JRFL | 0.969 |  | > 100 | > 100 | did not promote HIV+ plasma binding |  | enhanced |  | enhanced the recognition | unable to inhibit viral infection | exposed the CoRBS |  | 
CN1CCN(C(=O)N2CCC[C@H](C(=O)Nc3ccc(Cl)c(F)c3)C2)CC1 [TFH-I-070-A6] | 0.45 ± 0.09 | successfully exposed the CoRBS |  |  | 9.59 ± 3.4 | > 100 | did |  |  |  |  |  |  |  | 
CC1CN(C(=O)N2CCCC(C(=O)Nc3ccc(Cl)c(F)c3)C2)CC(C)N1C (stereo not shown) [TFH-I-116-D1] | 0.0655 | successfully exposed the CoRBS |  | translated into ADCC | 4.8 | > 100 | did |  |  |  |  |  |  | recognized the infected cells | not translated into enhanced ADCC
CN1CCN(C(=O)N2C[C@H](CN)C[C@H](C(=O)Nc3ccc(Cl)c(F)c3)C2)CC1 [ZXC-I-090] | 2.63 ± 0.5 |  |  |  | > 100 | > 100 |  |  |  |  |  |  |  |  | 
C[C@@H]1CN(C(=O)N2C[C@H](CN)C[C@H](C(=O)Nc3ccc(Cl)c(F)c3)C2)C[C@H](C)N1C [ZXC-I-092] | 0.75 ± 0.12 | successfully exposed the CoRBS |  |  | 34 ± 13.8 | > 100 |  |  |  |  |  |  |  |  | 
